In article PMC9202051 (ACS Omega, 2022):
Where two headings read alike, the source gives them in different places.

Legend:
soybean 15-LOX = target: T1, soybean 15-LOX (Glycine max, UniProt P08170); test: soybean 15-LOX inhibition assay; format: biochemical; conditions: for inhibition at 250 µM: read-out: inhibition (%) at 0.25 mM
T1 sequence (P08170 1-839): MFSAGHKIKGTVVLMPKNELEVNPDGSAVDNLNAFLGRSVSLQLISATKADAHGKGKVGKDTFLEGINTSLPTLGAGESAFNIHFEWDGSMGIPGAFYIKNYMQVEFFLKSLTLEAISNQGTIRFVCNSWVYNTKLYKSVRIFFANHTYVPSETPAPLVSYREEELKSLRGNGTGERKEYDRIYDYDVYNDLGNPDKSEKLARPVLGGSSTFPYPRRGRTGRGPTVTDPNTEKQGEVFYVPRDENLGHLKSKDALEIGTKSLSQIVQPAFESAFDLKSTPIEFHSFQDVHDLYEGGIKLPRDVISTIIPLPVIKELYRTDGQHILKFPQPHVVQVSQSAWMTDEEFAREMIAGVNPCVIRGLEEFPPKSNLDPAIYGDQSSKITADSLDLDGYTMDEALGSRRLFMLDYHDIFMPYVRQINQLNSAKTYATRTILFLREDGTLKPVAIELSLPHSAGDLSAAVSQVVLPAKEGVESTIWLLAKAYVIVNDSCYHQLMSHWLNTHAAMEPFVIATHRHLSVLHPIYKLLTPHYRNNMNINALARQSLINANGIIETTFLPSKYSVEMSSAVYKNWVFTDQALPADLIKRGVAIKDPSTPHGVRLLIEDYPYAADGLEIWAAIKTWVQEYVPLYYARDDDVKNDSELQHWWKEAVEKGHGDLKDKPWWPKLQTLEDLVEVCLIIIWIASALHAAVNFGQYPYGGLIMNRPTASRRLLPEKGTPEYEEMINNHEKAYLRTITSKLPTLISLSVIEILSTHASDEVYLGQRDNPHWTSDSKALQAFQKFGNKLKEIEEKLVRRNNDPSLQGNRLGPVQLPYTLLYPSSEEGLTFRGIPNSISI

[1] = tested on: blood mononuclear cells (MNCs); test: MTT cell viability assay; format: cell-based, human; conditions: MTT assay, 0.25 mM, mononuclear cells; mean ± SEM, n = 3
MTT cell viability assay = format: cell-based, human; conditions: human, blood mononuclear cells (MNCs)

Compound	IC50 (soybean 15-LOX) [µM]	inhibition at 250 µM (soybean 15-LOX) [%]	viability at 0.25 mM (MTT cell viability assay) [%]	further results
2-((5-(4-Chlorophenyl)-4-(furan-2-ylmethyl)-4H-1,2,4-triazol-3-yl)thio)-N-(m-tolyl) Methylacetamide [Compound 7f]				inhibition (%) at 0.25 mM (soybean 15-LOX; 0.25 mM, mean ± SEM, n = 3): 82.13 ± 1.85%; IC50 (soybean 15-LOX; mean ± SEM, n = 3): 45.4 ± 0.72 µM; cell viability (%) at 0.25 mM [1]: 90.21 ± 1.2%
CCCNC(=O)C(C)Sc1nnc(-c2ccc(Cl)cc2)n1Cc1ccco1 (stereo not shown) [Compound 7b, 2-((5-(4-Chlorophenyl)-4-(furan-2-ylmethyl)-4H-1,2,4-triazol-3-yl)thio)-N-n-propylmethylacetamide]	26.3 ± 0.62	89.3 ± 1.55	90.1 ± 1.1	
O=c1cc(-c2ccccc2)oc2cc(O)c(O)c(O)c12 [baicalein, reference compound]	2.24 ± 0.13			
COc1cc(/C=C/C(=O)CC(=O)/C=C/c2ccc(O)c(OC)c2)ccc1O [curcumin, reference compound]			73.9 ± 1.5	
O=P1(N(CCCl)CCCl)NCCCO1 (stereo not shown) [cyclophosphamide, reference compound]			56.5 ± 1.9	
O=c1c(O)c(-c2ccc(O)c(O)c2)oc2cc(O)cc(O)c12 [quercetin, reference compound]		92.6 ± 1.24		
